# According to patent US6706740B2, “Fungicidal heterocyclic aromatic amides and their compositions, methods of use and preparation” (Dow AgroSciences LLC, priority 1999, dated 2004):
# Read-outs that look alike come from different tables or passages of the source.
# Columns and labels:
# [1] = test system: Mycosphaerella graminicola (Septoria tritici—SEPTTR); experiment: In vitro fungal growth inhibition, Mycosphaerella graminicola (SEPTTR); type: cell-based; settings: Zymoseptoria tritici; 25 ppm in growth medium; read-out: SEPTTR in vitro Growth Inhibition
# Ustilago maydis (USTIMA) = experiment: microbe, parasite or virus in culture; type: cell-based; settings: Mycosarcoma maydis, read-out: USTIMA in vitro Growth Inhibition
# [2] = test system: Rhizoctonia solani (RHIZSO); experiment: microbe, parasite or virus in culture; type: cell-based; settings: Rhizoctonia solani, read-out: RHIZSO in vitro Growth Inhibition
# [3] = test system: Magnaporthe grisea (Pyricularia oryzae—PYRIOR); experiment: microbe, parasite or virus in culture; type: cell-based; settings: Pyricularia oryzae, read-out: PYRIOR in vitro Growth Inhibition
# [4] = test system: Phytophthora infestans (PHYTIN); experiment: microbe, parasite or virus in culture; type: cell-based; settings: Phytophthora infestans, read-out: PHYTIN in vitro Growth Inhibition
# Septoria tritici—SEPTTR = experiment: Leaf Blotch of Wheat, in vivo whole plant, 24 Hour Protectant
# [5] = test system: Phytophthora infestans—PHYTIN; experiment: whole plant or invertebrate; type: in vivo; settings: Phytophthora, in Solanum lycopersicum, 24 h, read-out: PHYTIN in vivo 1 Day Protectant
# [6] = test system: Stagonospora nodorum (Leptosphaeria nodorum—LEPTNO); experiment: In vitro fungal growth inhibition, Stagonospora nodorum (LEPTNO); type: cell-based; settings: Leptosphaeria; 25 ppm in growth medium; read-out: LEPTNO in vitro Growth Inhibition
# [7] = test system: Leptosphaeria nodorum—LEPTNO; experiment: Glume Blotch of Wheat, in vivo whole plant, 24 Hour Protectant
# [8] = test system: Puccinia recondita—PUCCRT; experiment: Brown Rust of Wheat, in vivo whole plant, 24 Hour Protectant
# Erysiphe graminis—ERYSGT = experiment: Powdery Mildew of Wheat, in vivo whole plant, 24 Hour Protectant
# [9] = Erysiphe; 100 ppm spray, wheat, 24 hour protectant, % control of fungal infection vs untreated plants; read-out: ERYSGT in vivo 1 Day Protectant
# [10] = Zymoseptoria tritici, 24 h, 100 ppm spray, 24 hour protectant, wheat; control of fungal infection vs untreated plants; read-out: SEPTTR in vivo 1 Day Protectant
# [11] = Leptosphaeria; 100 ppm spray, 24 hour protectant, wheat; control of fungal infection vs untreated plants; read-out: LEPTNO in vivo 1 Day Protectant
# [12] = Puccinia; 100 ppm spray, 24 hour protectant, wheat; control of fungal infection vs untreated plants; read-out: PUCCRT in vivo 1 Day Protectant
# [13] = Erysiphe; 100 ppm spray, 24 hour protectant, wheat; control of fungal infection vs untreated plants; read-out: ERYSGT in vivo 1 Day Protectant
# [14] = Zymoseptoria tritici, 24 h, 100 ppm spray, wheat, 24 hour protectant; control of fungal infection vs untreated plants; read-out: SEPTTR in vivo 1 Day Protectant
# [15] = Leptosphaeria; 100 ppm spray, wheat, 24 hour protectant; control of fungal infection vs untreated plants; read-out: LEPTNO in vivo 1 Day Protectant
# [16] = Puccinia; 100 ppm spray, wheat, 24 hour protectant; control of fungal infection vs untreated plants; read-out: PUCCRT in vivo 1 Day Protectant
# [17] = Erysiphe; 100 ppm spray, wheat, 24 hour protectant; control of fungal infection vs untreated plants; read-out: ERYSGT in vivo 1 Day Protectant
# [18] = 100 ppm spray, wheat, 24 hour protectant; control of fungal infection vs untreated plants
# [19] = 100 ppm spray, wheat, 24 hour protectant, % control of fungal infection vs untreated plants
SMILES,inhibition at 25 ppm [1],inhibition at 25 ppm (Ustilago maydis (USTIMA)),melting point,inhibition at 25 ppm [2],inhibition at 25 ppm [3],inhibition at 25 ppm [4],pest or weed control at 100 ppm [5],inhibition at 25 ppm [6],pest or weed control at 100 ppm (Septoria tritici—SEPTTR; [10]),"pest or weed control at 100 ppm [7, 11]","pest or weed control at 100 ppm [8, 12]",pest or weed control at 100 ppm (Erysiphe graminis—ERYSGT; [13]),also measured
COc1ccnc(C(=O)N[C@H]2COC(=O)[C@H](Cc3ccccc3)[C@@H](OC(=O)C(C)C)[C@H](C)OC2=O)c1OC(=O)CC(C)(C)C [Compound 610],< 80%,< 80%,151 to 152 °C,< 80%,< 80%,< 80%,< 25%,> 80%,–,–,–,–,"pest or weed control at 100 ppm (Septoria tritici—SEPTTR; Zymoseptoria tritici, 24 h, 100 ppm spray, wheat, 24 hour protectant, % control of fungal infection vs untreated plants; read-out: SEPTTR in vivo 1 Day Protectant): < 25%; pest or weed control at 100 ppm ([7]; Leptosphaeria; 100 ppm spray, wheat, 24 hour protectant, % control of fungal infection vs untreated plants; read-out: LEPTNO in vivo 1 Day Protectant): < 25%; pest or weed control at 100 ppm ([8]; Puccinia; 100 ppm spray, wheat, 24 hour protectant, % control of fungal infection vs untreated plants; read-out: PUCCRT in vivo 1 Day Protectant): 25 to 74%; pest or weed control at 100 ppm (Erysiphe graminis—ERYSGT; [9]): < 25%"
Cc1ccc(CNC(=O)c2ncccc2O)cc1 [Compound 223],< 80%,> 80%,83 to 84 °C,< 80%,> 80%,> 80%,< 25%,> 80%,< 25%,< 25%,< 25%,< 25%,–
COc1ccc(CNC(=O)c2ncccc2O)cc1 [Compound 226],< 80%,< 80%,96 to 97 °C,< 80%,< 80%,> 80%,< 25%,< 80%,< 25%,< 25%,< 25%,25 to 74%,–
COc1cc(NC(=O)c2ncccc2O)cc(OC)c1 [Compound 216],< 80%,< 80%,127 to 129 °C,< 80%,> 80%,< 80%,< 25%,< 80%,< 25%,< 25%,< 25%,< 25%,–
COc1ccnc(C(=O)NC2COC(=O)C[C@H](NC(=O)OCc3ccccc3)C(=O)OC2)c1O (stereo partly drawn) [Compound 376],< 80%,< 80%,190 to 192 °C,< 80%,< 80%,< 80%,< 25%,< 80%,–,–,–,–,"pest or weed control at 100 ppm (Septoria tritici—SEPTTR; [14]): 25 to 74%; pest or weed control at 100 ppm [7, 15]: 25 to 74%; pest or weed control at 100 ppm [8, 16]: < 25%; pest or weed control at 100 ppm (Erysiphe graminis—ERYSGT; [17]): 25 to 74%"
COc1ccnc(C(=O)N[C@H]2COC(=O)[C@H](CC3CCCC3)[C@@H](OC(=O)C(C)C)[C@H](C)OC2=O)c1O [Compound 402],< 80%,< 80%,182 to 184 °C,< 80%,< 80%,< 80%,< 25%,> 80%,–,–,–,–,"pest or weed control at 100 ppm (Septoria tritici—SEPTTR; [14]): 25 to 74%; LEPTNO in vivo 1 Day Protectant [7, 18]: + +; pest or weed control at 100 ppm [8, 16]: 25 to 74%; ERYSGT in vivo 1 Day Protectant (Erysiphe graminis—ERYSGT; [18]): + +"
CCCC(=O)Oc1c(OC)ccnc1C(=O)N[C@H]1COC(=O)[C@H](Cc2ccccc2)[C@@H](OC(=O)C(C)C)[C@H](C)OC1=O [Compound 599],> 80%,< 80%,162 to 163 °C,< 80%,< 80%,< 80%,< 25%,> 80%,–,–,–,–,"SEPTTR in vivo 1 Day Protectant (Septoria tritici—SEPTTR; [19]): + +; LEPTNO in vivo 1 Day Protectant [7, 19]: + +; PUCCRT in vivo 1 Day Protectant [8, 19]: + +; pest or weed control at 100 ppm (Erysiphe graminis—ERYSGT; [9]): < 25%"
COc1ccnc(C(=O)Nc2ccc(Oc3ccc(OC(=O)C(C)C)cc3)cc2)c1O [Compound 436],< 80%,< 80%,109 to 110.5 °C,< 80%,< 80%,< 80%,< 25%,< 80%,–,–,–,–,"pest or weed control at 100 ppm (Septoria tritici—SEPTTR; [14]): 25 to 74%; pest or weed control at 100 ppm [7, 15]: 25 to 74%; pest or weed control at 100 ppm [8, 16]: < 25%; pest or weed control at 100 ppm (Erysiphe graminis—ERYSGT; [17]): < 25%"
COc1cccc(CNC(=O)c2ncccc2O)c1 [Compound 225],< 80%,< 80%,41 to 43 °C,< 80%,< 80%,> 80%,< 25%,< 80%,< 25%,< 25%,< 25%,< 25%,–
CCC(=O)Oc1c(OC)ccnc1C(=O)N[C@H]1COC(=O)[C@H](Cc2ccccc2)[C@@H](OC(=O)C(C)C)[C@H](C)OC1=O [Compound 598],> 80%,< 80%,171 to 172 °C,< 80%,< 80%,< 80%,< 25%,> 80%,–,–,–,–,"SEPTTR in vivo 1 Day Protectant (Septoria tritici—SEPTTR; [19]): + +; LEPTNO in vivo 1 Day Protectant [7, 19]: + +; PUCCRT in vivo 1 Day Protectant [8, 19]: + +; ERYSGT in vivo 1 Day Protectant (Erysiphe graminis—ERYSGT; [19]): + +"
O=C(NC1CCC(O)CC1)c1ncccc1O (stereo not drawn) [Compound 208],< 80%,< 80%,112 to 115 °C,< 80%,< 80%,< 80%,25 to 74%,< 80%,< 25%,< 25%,25 to 74%,< 25%,–
